Test results: patent EP4818168A1, “FUSED RING COMPOUND, PHARMACEUTICAL COMPOSITION THEREOF AND USE THEREOF” (priority 2023, dated 2025)
Where two headings read alike, the source gives them in different places.

Columns and labels:
Assay type in all cases: cell-based
AURKA = molecular target: T1, AURKA (Homo sapiens, UniProt O14965)
T1 construct: endogenous in cells; host or cells: Jurkat cells
T1 sequence (O14965 1-403): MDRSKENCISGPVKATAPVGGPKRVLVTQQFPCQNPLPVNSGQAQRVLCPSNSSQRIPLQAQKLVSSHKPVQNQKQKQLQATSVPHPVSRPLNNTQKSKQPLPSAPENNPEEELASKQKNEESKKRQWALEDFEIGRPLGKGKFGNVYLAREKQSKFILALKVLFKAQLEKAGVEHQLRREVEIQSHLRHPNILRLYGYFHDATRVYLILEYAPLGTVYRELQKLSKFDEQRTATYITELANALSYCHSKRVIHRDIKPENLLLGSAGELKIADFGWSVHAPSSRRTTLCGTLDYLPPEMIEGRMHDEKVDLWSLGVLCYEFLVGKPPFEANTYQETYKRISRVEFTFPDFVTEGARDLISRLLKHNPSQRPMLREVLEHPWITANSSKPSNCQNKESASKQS
How it was run: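 Jurkat cells seeded at 1×10^6 cells/500 µL and treated with compound; lysates run on SDS-PAGE, blotted to nitrocellulose and probed overnight at 4°C for AURKA. Chemiluminescent or fluorescent band intensity fitted to a curve to give DC50 for protein degradation.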

HCC1806 cells = experiment: CTG assay of compound inhibition on cell viability (HCC1806 cells); conditions: Homo sapiens, read-out: IC50 in HCC1806 Cells
Experimental: CellTiter-Glo (CTG) is a rapid cell viability test method based on ATP detection. […] Adenosine triphosphate (ATP) participates in various enzymatic reactions in organisms and is an indicator of living cell metabolism. Its content directly reflects the number of living cells and cell status. During the experiment, equal volume of CTG reagent is added to the cultured cells to measure the luminescence value. The chemiluminescent signal value is proportional to the amount of ATP, thus reflecting the number of viable cells. Therefore, cell viability can be obtained by detecting the ATP content. Compounds that affect cell viability will inhibit cell viability in a concentration-dependent manner, allowing a curve to be fitted to obtain the IC50 value.
The experimental procedure is as follows: • 11. Place the cell suspension in a 15 mL centrifuge tube, centrifuge at 1000 rpm for 5 min at room temperature, discard the supernatant, and collect the cell pellet. • 12. Resuspend the cell pellet with preheated complete cell culture medium (RPMI1640+10%FBS+1%PS), and use a Countess® automated cell counter to detect cell viability and density. The cell viability must be above 90%. • 13. […] Transfer the compound solution to a 96-well plate seeded with cells (final concentration of DMSO 0.1%), and place in a cell incubator at 37°C, 5% CO2 for 6 days. • 15. […] Protect from light during the whole process. Perform optical signal readings using a SpectraMax i3x reader. • 16. Data analysis: Remaining activity (%) = 100% * (1 - ((LumDMSO - Lummedium) - Lumsample) / (LumDMSO - LumPBS/medium)). Use GraphPad Prism 9.0 software to draw an S-shaped dose-survival rate curve and calculate the IC50 value using a nonlinear regression model.

H82 cells = experiment: cells; conditions: Homo sapiens, NCI-H82; H82 cells, 4000 cells/well, CellTiter-Glo; read-out: IC50 in H82 Cells
How it was run: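 H82 cells in RPMI1640 + 10% FBS exposed to compound (0.1% DMSO final) for 6 days at 37 °C, 5% CO2. Viability read by CellTiter-Glo ATP luminescence, normalised to DMSO and medium controls; IC50 from nonlinear regression of the dose–survival curve.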

[1] = 100 nM compound, Jurkat cells, 24 h, Table 1
[2] = 1 µM compound, Jurkat cells, 24 h, Table 1
[3] = 144 h, HCC1806 cells, 6 days, CellTiter-Glo

| SMILES | IC50 (HCC1806 cells; HCC1806, 144 h) [nM] | Percentage of AURKA Degradation Induced by 100 nM Compound in Jurkat Cells (AURKA; [1]) | Percentage of AURKA Degradation Induced by 1 µM Compound in Jurkat Cells (AURKA; [2]) | other results |
| --- | --- | --- | --- | --- |
| COc1cc(Nc2ncc3c(n2)-c2ccc(Cl)cc2C(c2c(F)cccc2OC)=NC3)ccc1C(=O)N[C@H]1C[C@H](C#Cc2cccc3c2CN(C2CCC(=O)NC2=O)C3=O)C1 (relative stereo) [Compound A7] | 1000 to 10000 |  |  | Percentage of AURKA Degradation Induced by 100 nM Compound in Jurkat Cells (AURKA): ++ (key: +: Degradation ≤ 30%; ++: 30% < Degradation ≤ 70%; +++: Degradation > 70%); Percentage of AURKA Degradation Induced by 1 µM Compound in Jurkat Cells (AURKA): ++ (key: +: Degradation ≤ 30%; ++: 30% < Degradation ≤ 70%; +++: Degradation > 70%) |
| O=C1CCC(N2C(=O)c3cccc(NCCOCCNC(=O)c4ccc(Nc5ncc6c(n5)-c5ccc(Cl)cc5C(c5c(F)cccc5F)=NC6)cc4)c3C2=O)C(=O)N1 (centres unmarked) [Compound A1] |  | ++ (30% < Degradation ≤ 70%) | ++ (30% < Degradation ≤ 70%) | IC50 (HCC1806 cells; [3]): < 1000 nM |
| COc1cc(Nc2ncc3c(n2)-c2ccc(Cl)cc2C(c2c(F)cccc2OC)=NC3)ccc1C(=O)N(C)CCCCCNc1cccc2c1C(=O)N(C1CCC(=O)NC1=O)C2=O (centres unmarked) [Compound A2] |  | ++ (30% < Degradation ≤ 70%) | ++ (30% < Degradation ≤ 70%) | IC50 (HCC1806 cells; [3]): < 1000 nM |
| COc1cc(Nc2ncc3c(n2)-c2ccc(Cl)cc2C(c2c(F)cccc2OC)=NC3)ccc1C(=O)NC1CN(CCOc2cccc3c2C(=O)N(C2CCC(=O)NC2=O)C3=O)C1 (centres unmarked) [Compound A5] |  | ++ (30% < Degradation ≤ 70%) | ++ (30% < Degradation ≤ 70%) | IC50 (HCC1806 cells; [3]): < 1000 nM |
| COc1cc(Nc2ncc3c(n2)-c2ccc(Cl)cc2C(c2c(F)cccc2OC)=NC3)ccc1C(=O)NCCN1CCN(c2ccc(N3CCC(=O)NC3=O)cc2)CC1 [Compound A8] |  | +++ (Degradation > 70%) | +++ (Degradation > 70%) | IC50 (HCC1806 cells; [3]): < 1000 nM |
| O=C1CCN(c2ccc(N3CCN(CCNC(=O)c4ccc(Nc5ncc6c(n5)-c5ccc(Cl)cc5C(c5c(F)cccc5F)=NC6)cc4)CC3)cc2)C(=O)N1 [Compound A10] | < 1000 | ++ (30% < Degradation ≤ 70%) | ++ (30% < Degradation ≤ 70%) |  |
| CN(CCN1CCN(c2ccc(N3CCC(=O)NC3=O)cc2)CC1)C(=O)c1ccc(Nc2ncc3c(n2)-c2ccc(Cl)cc2C(c2c(F)cccc2F)=NC3)cc1 [Compound A11] | < 1000 | +++ (Degradation > 70%) | ++ (30% < Degradation ≤ 70%) |  |
| O=C1CCN(c2ccc(N3CCC(CNC(=O)c4ccc(Nc5ncc6c(n5)-c5ccc(Cl)cc5C(c5c(F)cccc5F)=NC6)cc4)CC3)cc2)C(=O)N1 [Compound A12] | < 1000 | + (Degradation ≤ 30%) | + (Degradation ≤ 30%) |  |
| COc1cc(Nc2ncc3c(n2)-c2ccc(Cl)cc2C(c2c(F)cccc2OC)=NC3)ccc1C(=O)NCCN1CCC(c2ccc(N3CCC(=O)NC3=O)cc2)CC1 [Compound A15] | < 1000 | +++ (Degradation > 70%) | +++ (Degradation > 70%) |  |
| COc1cc(Nc2ncc3c(n2)-c2ccc(Cl)cc2C(c2c(F)cccc2OC)=NC3)ccc1C(=O)NCCN1CCC(c2ccc(N3CCC(=O)NC3=O)cn2)CC1 [Compound A16] | < 1000 | +++ (Degradation > 70%) | ++ (30% < Degradation ≤ 70%) |  |
| COc1cc(Nc2ncc3c(n2)-c2ccc(Cl)cc2C(c2c(F)cccc2OC)=NC3)ccc1C(=O)NCCN1Cc2cc3c(cc2C1)C(=O)N(C1CCC(=O)NC1=O)C3=O (centres unmarked) [Compound A17] | < 1000 | + (Degradation ≤ 30%) | + (Degradation ≤ 30%) |  |
| O=C1CCN(c2ccc(N3CCN(C4CN(C(=O)c5ccc(Nc6ncc7c(n6)-c6ccc(Cl)cc6C(c6c(F)cccc6F)=NC7)cc5)C4)CC3)cc2)C(=O)N1 [Compound A19] | < 1000 | ++ (30% < Degradation ≤ 70%) | + (Degradation ≤ 30%) |  |
| COc1cc(Nc2ncc3c(n2)-c2ccc(Cl)cc2C(c2c(F)cccc2OC)=NC3)ccc1C(=O)NCCN1CCN(c2cccn3c(N4CCC(=O)NC4=O)cnc23)CC1 [Compound A21] | < 1000 | +++ (Degradation > 70%) | +++ (Degradation > 70%) |  |
| O=C1CCN(c2cnc3c(N4CCN(CCNC(=O)c5ccc(Nc6ncc7c(n6)-c6ccc(Cl)cc6C(c6c(F)cccc6F)=NC7)cc5)CC4)cccn23)C(=O)N1 [Compound A22] | < 1000 | +++ (Degradation > 70%) | +++ (Degradation > 70%) |  |
| COc1cc(Nc2ncc3c(n2)-c2ccc(Cl)cc2C(c2c(F)cccc2OC)=NC3)ccc1C(=O)NCCN1CCC(n2cnc(N3CCC(=O)NC3=O)c2)CC1 [Compound A23] | < 1000 | + (Degradation ≤ 30%) | + (Degradation ≤ 30%) |  |
| COc1cc(Nc2ncc3c(n2)-c2ccc(Cl)cc2C(c2c(F)cccc2OC)=NC3)ccc1C(=O)NCCN1CCN(c2ncc(N3CCC(=O)NC3=O)s2)CC1 [Compound A24] | < 1000 | +++ (Degradation > 70%) | ++ (30% < Degradation ≤ 70%) |  |
| O=C1CCN(c2cnc(N3CCN(CCNC(=O)c4ccc(Nc5ncc6c(n5)-c5ccc(Cl)cc5C(c5c(F)cccc5F)=NC6)cc4)CC3)s2)C(=O)N1 [Compound A25] | < 1000 | +++ (Degradation > 70%) | ++ (30% < Degradation ≤ 70%) |  |
| COc1cc(Nc2ncc3c(n2)-c2ccc(Cl)cc2C(c2c(F)cccc2OC)=NC3)ccc1C(=O)NCCC#Cc1ccc(N2CCC(=O)NC2=O)cc1 [Compound A26] | < 1000 | + (Degradation ≤ 30%) | + (Degradation ≤ 30%) |  |
| COc1cc(Nc2ncc3c(n2)-c2ccc(Cl)cc2C(c2c(F)cccc2OC)=NC3)ccc1C(=O)NCC1CCN(Cc2ccc(N3CCC(=O)NC3=O)cc2)CC1 [Compound A27] | 1000 to 10000 | + (Degradation ≤ 30%) | + (Degradation ≤ 30%) |  |
| COc1cc(Nc2ncc3c(n2)-c2ccc(Cl)cc2C(c2c(F)cccc2OC)=NC3)ccc1C(=O)NC1CC(C#Cc2cccc(N3CCC(=O)NC3=O)c2)C1 (centres unmarked) [Compound A50] | < 1000 |  |  |  |
| O=C1CCN(c2cccc(C#CC34CC(NC(=O)c5ccc(Nc6ncc7c(n6)-c6ccc(Cl)cc6C(c6c(F)cccc6F)=NC7)cc5)(C3)C4)c2)C(=O)N1 [Compound A76] | 1000 to 10000 |  |  |  |
| Cn1nc(N2CCC(=O)NC2=O)c2ccc(N3CCC4(CC3)CC(N3CCN(c5ccc(Nc6ncc7c(n6)-c6ccc(Cl)cc6C(c6c(F)cccc6F)=NC7)cc5)CC3)CO4)cc21 (centres unmarked) [Compound A365] |  |  |  | Percentage of AURKA Degradation Induced by 100 nM Compound in Jurkat Cells (AURKA; 100 nM compound, Jurkat cells, 24 h, Table 2): +++ (Degradation > 70%); Percentage of AURKA Degradation Induced by 1 µM Compound in Jurkat Cells (AURKA; 1 µM compound, Jurkat cells, 24 h, Table 2): +++ (Degradation > 70%); IC50 (H82 cells): < 1000 nM |
